US20230346769A1, “USE OF SIMPLE ACYCLIC POLYAMINES FOR THE TREATMENT OF DISEASES CAUSED BY PARASITES OF THE GENUS LEISHMANIA” (Universidad De Granada, priority 2020, published 2023)
Entries after “also recorded” stand apart in the source; their conditions may differ.

Key:
J774.2 macrophages = assay: Macrophage toxicity by flow cytometry; format: cell-based; settings: for IC50: J774.2 macrophages, 72 h of culture
Protocol: Macrophage toxicity: this study used the experimental model designed by the group of inventors [I. Ramírez-Macías. et. al. J. Antimicrob. Chemother. 2011, 66(4): 813-819] wherein flow cytometry is used. Briefly, macrophages from line J774.2 (ECACC number 91051511, obtained from a BALB/c female […] tumour in 1968) were deposited in a steriling tube and centrifuged at 120 g for 5 minutes. The supernatant was discarded and the cells were resuspended in MEM + Glutamine medium with 20% SBF (fetal bovine serum). 1×10^4 cells per well were then deposited from a 24-well titration plate and incubated for 24-48 h at 37° C. in a humid atmosphere enriched with 5% CO2 to fix them. […] After 72 h of incubation, the samples were prepared for reading on a flow cytometer. Specifically, 100 µl of propidium iodide solution (100 µg/ml) was added to each well and incubated for 10 min at 28° C. in the dark. Subsequently, 100 µl/well of fluorescein diacetate (FDA) (Sigma Chemical Co) in solution (100 ng/mL) was added and incubation was repeated under the same conditions for 10 minutes. Cells were recovered by centrifugation at 400 g for 10 minutes and washing the precipitate with PBS. Finally, the results were analysed in a FACS Vantage flow cytometer (Becton Dickinson) taking into account that the cells with the plasma membrane intact emit green colour as the esterases act on the FDA, while the cells that have lost the integrity of the membrane and are not viable, emit in the range close to 580 nm by penetrating the propidium iodide by passive diffusion and specifically binding to the nucleic acids thereof. Thus, to calculate the percentage of viability, the number of dead cells compared to controls was taken into account.

[1] = system: intracellular forms of L.infantum in J774.2 macrophages; assay: Infection rate and parasite growth in infected macrophage cultures; format: cell-based, Leishmania infantum; settings: compound at IC25, 10 days
Protocol: (§1) Methodology: Macrophages of the J774.2 line preserved in the laboratory of the present inventors by cryopreservation at -80° C. and successive runs in MEM+Glutamine + 20% SBFI medium were used, which were deposited in a […] tube and centrifuged at 100 g for 5 minutes. The supernatant was discarded and the cells were resuspended in medium corresponding to a final concentration of 1×10^6 cells/ml. Subsequently, 10 μl of the cell suspension was deposited into each well of a 24-well culture plate each with a 10 mm diameter round slide. A final volume of 500 μl was completed with the culture medium and incubated for 24 h at 37° C. in humid atmosphere with 5% CO2. […] The non-phagocytic parasites and products were removed by washing and the infected cultures were maintained for 10 days in fresh medium added every 48 hours. The activity of the compounds was determined by the percentage of infected cells and the number of amastigotes per infected cell. Finally, the cultures were fixed and stained with methanol and Giemsa.

[2] = system: FeSOD of the promastigote forms of L.braziliensis; assay: In vitro inhibition of FeSOD (NBT reduction); format: biochemical, Leishmania braziliensis
Protocol: (§2) Methodology: Compounds that were selected from the leishmanicidal activity shown in previous experiments were evaluated as inhibitors of FeSOD enzyme activity, which is unique to the kinetoplastid parasites to which Leishmania belongs. Being exclusive, it is absent in the vertebrate host, since these usually have an analogous form of that enzyme, but complexed to a copper or zinc atom (Cu/ZnSOD). For this reason, this enzyme is a therapeutic target for the design of new drugs, since the capture of the metal ion by complexing mechanisms can inactivate the enzyme and compromise the survival of the parasite with the appearance of free radicals.
(§3) Inhibition caused by the novel compounds on FeSOD/ Cu-Zn SOD activity was quantified on the spectrophotometer at 560 nm according to the technique described by [W F. Beyer. I. Fridovich. Anal Biochem. 1987. […]
(§4) Briefly, the cultured parasites as described in Example 1 underwent centrifugation, the pellet was resuspended (0.5 - 0.6 g/ml) in 3 ml of STE buffer (0.25 M. Tris-HCI 25 mM sucrose. 1 M EDTA. pH 7.8) and underwent 3 cycles of sonication from 30 s at 60 V. Then, it was centrifuged at 1500 g for 10 min at 4° C. and the pellet was washed 3 times with ice-cooled STE buffer. […] Protein concentrations were determined by means of the Bradford method (Sigma-Aldrich) using bovine serum albumin as standard. […]

[3] = system: intracellular forms of L.donovani in J774.2 macrophages; assay: Infection rate and parasite growth in infected macrophage cultures; format: cell-based, Leishmania donovani; settings: compound at IC25, 10 days
Protocol: as §1

[4] = system: FeSOD of promastigote forms of L.infantum; assay: In vitro inhibition of FeSOD (NBT reduction); format: biochemical, Leishmania infantum
Protocol: as §2
Inhibition caused by the novel compounds on FeSOD/ Cu-Zn SOD activity was quantified on the spectrophotometer at 560 nm according to the technique described by [W F. Beyer. I. Fridovich. Anal Biochem. 1987. 161: 559-66] based on the determination of the reduction of NBT (nitro blue tetrazolium) by superoxide ions and which the group of the present inventors has developed for the assay in trypanosomatides, being a routine technique in the laboratory of said group [F. Luque. et. al. Comp. Biochem. Physiol. C Toxicol. Pharmacol. 2000. 126: 39-44; M. Sanchez-Moreno. Med. Chem. 2011. 54. 970-9; I. Ramírez-Macías. et. al. J. Antimicrob. Chemother 2011. 66(4): […]].
Briefly, the cultured parasites as described in Example 1 underwent centrifugation, the pellet was resuspended (0.5 - 0.6 g/ml) in 3 ml of STE buffer ([…]. pH 7.8) and underwent 3 cycles of sonication from 30 s at 60 V. Then, it was centrifuged at 1500 g for 10 min at 4° C. and the pellet was washed 3 times with ice-cooled STE buffer. This fraction was centrifuged (2500 g for 10 min at 4° C.) and the supernatant was subsequently collected. Protein concentrations were determined by means of the Bradford method (Sigma-Aldrich) using bovine serum albumin as standard. […] A first measurement of the absorbance at 560 nm was made on a spectrophotometer and, after 10 minutes under light and under stirring conditions, the absorbance was re-determined. […]

[5] = system: FeSOD of promastigote forms of L.donovani; assay: In vitro inhibition of FeSOD (NBT reduction); format: biochemical, Leishmania donovani
Protocol: as §2, §3, §4

[6] = system: L.braziliensis promastigotes; assay: Alteration of production and excretion of metabolites (1H NMR); format: cell-based, Leishmania braziliensis; settings: compound at IC25, 72 h; for Succinate production: versus control
Protocol: Methodology: Promastigotes from the three species studied were used for this study. They were left to grow in a culture flask and subsequently transferred to a 25 ml capacity conical bottom flask (steriling) so that there were 5×10^4 parasites/ml in each one. The amount of compound needed to reach IC25 of each product was added and completed with fresh culture medium to reach a final volume of 3 ml and incubated at 28° C. for 72 h. After that time, the flasks were centrifuged at 400 g for 10 minutes, and 2 ml of supernatant was transferred to Eppendorf® tubes. Next, they were analysed using proton nuclear resonance and the spectra were analysed with the Mestre Nova® software to obtain the metabolite production and excretion graphs. From these graphs, it can be inferred which enzyme has seen its activity altered by action of the compounds, depending on the increase or decrease of the metabolite produced by it.
Both the decrease and increase in the metabolites analysed can be positive effects, indicating a malfunctioning of the metabolic pathway.

## CNCCNCc1ccccn1 [Compound 1, 1-{2-pyridyl}-2,5-diazahexane]
J774.2 macrophages
  IC50: 13.7 ± 3.1 µM

## CNCCNCc1cccnc1 [Compound 2, 1-{3-pyridyl)-2,5-diazahexane]
[1]
  Number of amastigotes per infected cell: lowest values over time
  Percentage of infection (infection rate): lowest values over time
[2]
  Concentration for 50% inhibition (IC50) of FeSOD of L.braziliensis: showed ability to inhibit FeSOD
[3]
  Number of amastigotes per infected cell: lowest values over time; also recorded: effective by decreasing
  Percentage of infection (infection rate): lowest values over time; also recorded: effective by decreasing
J774.2 macrophages
  Toxicity in macrophages (IC50) compared with the reference compound: low toxicities
  IC50: 310 ± 11.5 µM
[4]
  Concentration for 50% inhibition (IC50) of FeSOD of L.infantum: less than that necessary to achieve the same percentage of inhibition of the CuZnSOD enzyme of human erythrocytes; also recorded: showed ability to inhibit FeSOD; also recorded: low IC50 value
[5]
  Concentration for 50% inhibition (IC50) of FeSOD of L.donovani: lower than that necessary for the enzyme of human erythrocytes; also recorded: showed ability to inhibit FeSOD; also recorded: low IC50 value
[6]
  Production and excretion of metabolites (metabolism, other metabolites analysed): practically does not alter the other metabolites analysed
  Succinate production: a certain increase of succinate

## CNCCNCc1ccncc1 [Compound 3, 1-{4-pyridyl)-2,5-diazahexane]
J774.2 macrophages
  IC50: 223 ± 17.3 µM

## CN(C)CCNCc1ccccn1 [Compound 4, 1-(2-pyridyl)-5-methyl-2,5-diazahexane]
[1]
  Number of amastigotes per infected cell: better (lower) than those obtained with compound 5
  Percentage of infection (infection rate): lower infection rate on day 10
[2]
  Concentration for 50% inhibition (IC50) of FeSOD of L.braziliensis: lower than that necessary for the enzyme of human erythrocytes; also recorded: showed ability to inhibit FeSOD
[3]
  Number of amastigotes per infected cell: effective by decreasing
  Percentage of infection (infection rate): effective by decreasing
J774.2 macrophages
  IC50: 1240 ± 42.7 µM
[4]
  Concentration for 50% inhibition (IC50) of FeSOD of L.infantum: less than that necessary to achieve the same percentage of inhibition of the CuZnSOD enzyme of human erythrocytes; also recorded: showed ability to inhibit FeSOD
[5]
  Concentration for 50% inhibition (IC50) of FeSOD of L.donovani: lower than that necessary for the enzyme of human erythrocytes; also recorded: showed ability to inhibit FeSOD
[6]
  Production and excretion of metabolites (metabolism, other metabolites analysed): decrease of the remaining metabolites analysed
  Succinate production: increase in succinate production

## CN(C)CCNCc1cccnc1 [Compound 5, 1-{3-pyridyl}-5-methyl-2,5-diazahexane]
[1]
  Percentage of infection (infection rate): lower infection rates than compound 4 until 8 days had elapsed
J774.2 macrophages
  Toxicity in macrophages (IC50) compared with the reference compound: much lower
  IC50: 230 ± 16.9 µM
[4]
  Concentration for 50% inhibition (IC50) of FeSOD of L.infantum: less than that necessary to achieve the same percentage of inhibition of the CuZnSOD enzyme of human erythrocytes; also recorded: showed ability to inhibit FeSOD

## CN(C)CCNCc1ccncc1 [Compound 6]
J774.2 macrophages
  IC50: 497 ± 21.5 µM

## CN(C)CCNCc1ccc2ccccc2n1 [Compound 7]
J774.2 macrophages
  IC50: 442 ± 31.6 µM

## CN(C)CCNCc1ccnc2ccccc12 [Compound 8, 1-{4-quinolyl)-5-methyl-2,5-diazahexane]
J774.2 macrophages
  IC50: 22.5 ± 0.6 µM

## CNCCNCc1ccc2ccccc2n1 [Compound 9, 1-{2-quinolyl)-2,5-diazahexane]
J774.2 macrophages
  IC50: 354 ± 31.7 µM

## CNCCNCc1ccnc2ccccc12 [Compound 10]
J774.2 macrophages
  IC50: 164 ± 10 µM
